Assays:
[1] = tested on: rat Streptozotocin-induced diabetic neuropathy model; assay: Streptozotocin-induced diabetic neuropathy (allodynia) model; type: in vivo; settings: STZ rat; for pain sensitivity (allodynia testing of the hindpaw): Week 6, versus vehicle-treated animals
Description: Preclinically, in two animal models of neuropathic pain, repeat administration of Compound A produced significant analgesia. […] With reference to WO 08/157,365, the rat Streptozotocin-induced diabetic neuropathy model is a clinically relevant model of diabetic neuropathy, which replicates elements of the human situation diabetic condition such as high glucose levels, neuropathic pain in the extremities, and generally poor health.

[2] = tested on: Taxol®-induced neuropathy; assay: Taxol-induced (chemotherapy induced) neuropathy model; type: in vivo
subjects with IBS-C = assay: Randomized, double-blind, placebo controlled proof of principle study in IBS-C; type: in vivo, human
Protocol: A randomized, double-blind, placebo controlled, parallel group, proof of principle study to evaluate the safety, tolerability, and efficacy of Compound A in the treatment of Constipation-Predominant Irritable Bowel Syndrome was conducted.
The objectives of the study include the following: to assess the efficacy of Compound A in the treatment of Constipation Predominant Irritable Bowel Syndrome (IBS-C); and to assess the safety, tolerability and pharmacokinetic profile of Compound A in subjects with IBS-C when administered as a enteric coated capsule for a period of 28 days.
Subjects with constipation predominant irritable bowel syndrome (IBS-C) defined by: the ROME III criteria as: recurrent abdominal pain or discomfort at least 3 days per month, during the previous 3 months that is associated with 2 or more of the following: (1) relieved by defecation; (2) onset associated with a change in stool frequency; and/or (3) onset associated with a change in stool appearance.
Treatment included 5 mg daily (as Enteric Coated capsule) for 14 days followed by 5 mg BID for another 14 days. One endpoint includes global IBS symptom relief (7-point scale). Another endpoint includes bowel movement frequency, pain, bloating, straining, stool consistency, and frequency of rescue medication (laxative). Statistically, a was set to 0.1.

[3] = molecular target: α4β2 nueronal nicotinic receptors (Homo sapiens, UniProt P17787+P43681); assay: Agonism at α4β2 neuronal nicotinic receptors (statement)
[4] = molecular target: α3β4 nueronal nicotinic receptors (Homo sapiens, UniProt P30926+P32297); assay: Agonism at α3β4 neuronal nicotinic receptors (statement)
normal healthy subjects = assay: Single (SRD) and multiple rising dose (MRD) studies in normal healthy subjects; type: in vivo, human
Protocol: (§1) In the MRD study, following doses 10 mg administered 4 times daily, nausea and vomiting typically occurred within 30 min of dosing—prior to significant systemic absorption. Diarrhea was typically observed more than 5 hours following dosing, when systemic concentrations were approximately 20% of Cmax values. […] Such pharmacodynamic GI motility responses appear to correlate primarily with local effects (possibly agonism of α3β4 receptors located on enterochromaffin cells) rather than systemic plasma concentrations.

[5] = as above; type: in vivo, human; settings: oral; human plasma; read-out: systemic (plasma) half-life
Protocol: as §1

α4β2 nueronal nicotinic receptors, sequence (P43681 29-627 limits assumed): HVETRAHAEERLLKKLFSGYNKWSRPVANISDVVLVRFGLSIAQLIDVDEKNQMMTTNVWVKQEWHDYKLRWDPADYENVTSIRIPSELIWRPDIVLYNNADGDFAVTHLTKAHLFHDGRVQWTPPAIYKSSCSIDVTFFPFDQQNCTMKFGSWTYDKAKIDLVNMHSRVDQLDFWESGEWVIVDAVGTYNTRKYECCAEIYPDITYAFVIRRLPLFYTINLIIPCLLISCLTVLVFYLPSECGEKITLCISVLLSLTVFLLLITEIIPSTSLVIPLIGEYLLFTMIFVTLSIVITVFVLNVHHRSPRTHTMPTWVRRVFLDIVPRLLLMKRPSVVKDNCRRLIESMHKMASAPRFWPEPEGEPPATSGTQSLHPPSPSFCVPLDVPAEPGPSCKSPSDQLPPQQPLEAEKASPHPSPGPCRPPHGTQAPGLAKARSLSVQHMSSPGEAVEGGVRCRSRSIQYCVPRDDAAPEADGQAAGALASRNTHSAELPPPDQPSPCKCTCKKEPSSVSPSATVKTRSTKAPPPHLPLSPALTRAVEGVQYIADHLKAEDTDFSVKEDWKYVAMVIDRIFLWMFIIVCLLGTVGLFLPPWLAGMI
α4β2 nueronal nicotinic receptors, sequence (P17787 26-502): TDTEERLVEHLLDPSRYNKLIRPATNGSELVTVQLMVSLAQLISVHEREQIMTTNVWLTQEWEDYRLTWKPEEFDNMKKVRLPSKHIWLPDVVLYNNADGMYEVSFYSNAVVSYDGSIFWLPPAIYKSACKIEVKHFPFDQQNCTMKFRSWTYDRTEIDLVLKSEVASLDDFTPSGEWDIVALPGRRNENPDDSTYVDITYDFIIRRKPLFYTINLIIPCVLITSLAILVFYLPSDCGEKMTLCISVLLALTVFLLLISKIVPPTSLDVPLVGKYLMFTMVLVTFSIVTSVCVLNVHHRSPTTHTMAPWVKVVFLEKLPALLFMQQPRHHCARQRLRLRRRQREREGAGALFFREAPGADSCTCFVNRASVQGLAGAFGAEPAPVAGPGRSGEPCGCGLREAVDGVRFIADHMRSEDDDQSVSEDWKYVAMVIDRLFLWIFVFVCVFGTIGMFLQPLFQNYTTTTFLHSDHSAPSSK
α3β4 nueronal nicotinic receptors, sequence (P32297 32-505): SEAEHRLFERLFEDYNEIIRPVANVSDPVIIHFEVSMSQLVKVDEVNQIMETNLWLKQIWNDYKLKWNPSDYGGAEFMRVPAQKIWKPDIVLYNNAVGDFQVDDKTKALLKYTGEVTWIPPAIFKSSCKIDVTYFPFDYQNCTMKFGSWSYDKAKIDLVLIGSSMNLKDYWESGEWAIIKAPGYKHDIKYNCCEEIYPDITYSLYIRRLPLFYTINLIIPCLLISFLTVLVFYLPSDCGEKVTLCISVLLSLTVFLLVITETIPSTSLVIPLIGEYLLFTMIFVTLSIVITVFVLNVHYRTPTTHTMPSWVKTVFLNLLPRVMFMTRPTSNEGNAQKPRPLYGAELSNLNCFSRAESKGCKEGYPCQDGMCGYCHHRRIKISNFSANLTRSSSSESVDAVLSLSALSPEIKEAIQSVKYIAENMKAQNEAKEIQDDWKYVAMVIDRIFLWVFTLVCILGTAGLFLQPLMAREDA
α3β4 nueronal nicotinic receptors, sequence (P30926 22-498): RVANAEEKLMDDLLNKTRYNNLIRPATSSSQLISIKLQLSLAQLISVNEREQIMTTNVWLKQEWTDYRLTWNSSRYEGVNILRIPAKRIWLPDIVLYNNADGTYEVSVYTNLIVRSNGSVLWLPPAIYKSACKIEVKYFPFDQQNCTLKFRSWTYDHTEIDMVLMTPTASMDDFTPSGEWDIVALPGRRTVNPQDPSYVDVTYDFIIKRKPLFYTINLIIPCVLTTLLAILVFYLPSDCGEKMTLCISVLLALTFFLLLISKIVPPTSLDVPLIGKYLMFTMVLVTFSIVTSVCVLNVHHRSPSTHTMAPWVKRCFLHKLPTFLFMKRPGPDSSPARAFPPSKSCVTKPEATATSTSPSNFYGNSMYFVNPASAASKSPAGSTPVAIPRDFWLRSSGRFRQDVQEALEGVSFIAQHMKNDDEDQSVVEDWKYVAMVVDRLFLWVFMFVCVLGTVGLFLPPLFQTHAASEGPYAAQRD

Compound | blood glucose levels [1] | pain sensitivity (allodynia testing of the hindpaw) [1] | analgesic effect (allodynia) ([2]; acutely administered) | analgesic effect (allodynia) ([2]; chronically administered) | analgesic properties (subjects with IBS-C; IBS-C subjects) | most commonly reported adverse events (subjects with IBS-C; IBS-C subjects, 28 days) | severity of adverse events (subjects with IBS-C; IBS-C subjects, 28 days) | tolerability (subjects with IBS-C; enteric coated capsule, 5 mg daily 14 days then 5 mg BID 14 days) | spontaneous bowel movements (SBM) (subjects with IBS-C; versus placebo, maintained over at least 1 month) | SBM relative to Tegaserod, Lubiprostone and Linaclotide (subjects with IBS-C; week 4, FIG. 2, comparator data from literature) | receptor activity type [3] | receptor activity type [4] | time of diarrhea after dosing (normal healthy subjects; MRD study, 10 mg 4 times daily) | time of nausea and vomiting after dosing (normal healthy subjects; MRD study, 10 mg 4 times daily) [min] | systemic concentration when diarrhea observed (normal healthy subjects; MRD study, more than 5 hours following dosing) | most commonly observed adverse events (normal healthy subjects; SRD and MRD studies, healthy subjects) | GI motility (normal healthy subjects; healthy human subjects) | half-life [5] [h]
insulin: insulin-treated group in the STZ-rat model of diabetic neuropathy [reference compound] | reduced blood glucose levels | did not have significant improvement in pain sensitivity | – | – | – | – | – | – | – | – | – | – | – | – | – | – | – | –
NCC1(CC(=O)O)CCCCC1 [Gabapentin, reference compound] | – | – | analgesic effect | – | – | – | – | – | – | – | – | – | – | – | – | – | – | –
C(=C\[C@H]1CCNC1)/c1cncnc1 [Compound A, (R)-5-((E)-2-pyrrolidin-3-ylvinyl)pyrimidine] | absence of any changes to blood glucose levels | significant reversal of this pain | – | analgesic effect | appears to lack analgesic properties | headache or gastrointestinal | mild to moderate | generally well tolerated | robust increases | compares favorably | agonist | agonist | more than 5 hours | ≤ 30 | approximately 20 % of Cmax values | nausea, vomiting and diarrhea | increase in GI motility | ≤ 1

Reference: patent US20130237550A1, “ARYLVINYLAZACYCLOALKANE COMPOUNDS FOR CONSTIPATION” (TARGACEPT, INC., priority 2010, published 2013)
